{"source": "paper PMC6379368", "about": "“Extracellular and intracellular small-molecule galectin-3 inhibitors” (Scientific Reports, 2019)", "key": {"[1]": {"system": "BxPc-3 cells", "assay": "Growth curves, BxPc-3", "type": "cell-based", "settings": "BxPc-3, 10 µM", "protocol": "(§1) METHODS (not described in main article)\n(§2) The AsPC-1, BxPc-3, MIA PaCa-2, and PanC-1 pancreatic cancer cell lines were purchased from the American Type Culture Collection (ATCC) (Manassas, VA, USA). AsPC-1 and BxPc-3 cell lines were cultured in RPMI-1640 medium, and MIA PaCa-2 and PanC-1 in Dulbecco's Modified Eagle Medium (DMEM)/Ham's F12 medium mixture (1:1). The medium of all four pancreatic cancer cell lines was supplemented with 10 % fetal bovine serum (FBS), 100 U/ml penicillin, and 100 μg/ml streptomycin. The L56Br-C1 breast cancer cell line was established at Lund University (Lund, Sweden)1, and was cultured in RPMI-1640 medium supplemented with 10 % heat-inactivated FBS, 100 U/ml penicillin, 100 μg/ml streptomycin, 1 mM non-essential amino acids, and 10 µg/ml insulin. The MCF-10A normal-like breast cell line was obtained from ATCC and was cultured in the same medium mixture as L56Br-C1 with the addition of 20 ng/ml epidermal growth factor, 50 ng/ml cholera toxin, and 500 ng/ml hydrocortisone.\n(§3) Fluorescence anisotropy assay\n(§4) The affinity between inhibitor 1 and the carbohydrate recognition domain (CRD) of galectin-8C and between inhibitor 3 and the CRD of galectin-2, -4N, -4C, 8C, and -9C was determined using the fluorescence anisotropy assay described in the main article. Experimental conditions used for each galectin […]"}, "[2]": {"system": "JIMT-1 cells", "assay": "MTT cell viability assay, JIMT-1", "type": "cell-based", "settings": "JIMT-1, 72 hours, 0.04–40 µM for 1 and 2, 0.04–20 µM for 3", "protocol": "The MTT (3-[4,5-dimethylthiazol-2-yl]−2,5-diphenyltetrazolium bromide) assays were performed as previously described. […] The cells were incubated for 24 hours before addition of galectin-3 inhibitors. The inhibitors were diluted in PBS from their respective stock solution in DMSO (see Galectin-3 inhibitors) and used at final concentrations ranging from 0.04 to 40 μM. DMSO was adjusted to make the final DMSO concentration 0.2% for all inhibitor concentrations, including the control sample (no inhibitor). After 72 hours of treatment, 20 μl of 5 mg/ml MTT solution (in PBS) was added to each well and incubation continued for 1 hour at 37 °C. Thereafter, the MTT containing medium was removed and 100 μl of DMSO was added per well and the plates swirled gently for 10 minutes to dissolve the cells and the purple formazan product precipitate. Absorbance was monitored at 540 nm using a Labsystems iEMS Reader MF (Labsystems Oy, Helsinki, Finland) and the software DeltaSoft II v.4.14 (Biometallics Inc., Princeton, NJ, USA)."}, "[3]": {"system": "AsPC-1 cells", "assay": "Growth curves, AsPC-1", "type": "cell-based", "settings": "AsPC-1, 10 µM", "protocol": "as §1, §2, §3, §4"}, "[4]": {"system": "animal models of idiopathic pulmonary fibrosis (IPF)", "design": "method as in PMID 27356186, PMID 28055102", "settings": "cited from earlier work"}, "[5]": {"system": "BxPc-3 cells", "assay": "MTT assay, BxPc-3 pancreatic cancer cells", "type": "cell-based", "settings": "BxPc-3, 72 hours", "protocol": "(§5) The MTT (3-[4,5-dimethylthiazol-2-yl]−2,5-diphenyltetrazolium bromide) assays were performed as previously described. In brief, cells were seeded in 96-well plates (6000 cells/well for MCF-7 and HCC1937 and 5000 cells for JIMT-1 in 180 μl fully-supplemented medium as described under Cell culture). The cells were incubated for 24 hours before addition of galectin-3 inhibitors. The inhibitors were diluted in PBS from their respective stock solution in DMSO (see Galectin-3 inhibitors) and used at final concentrations ranging from 0.04 to 40 μM. DMSO was adjusted to make the final DMSO concentration 0.2% for all inhibitor concentrations, including the control sample (no inhibitor). After 72 hours of treatment, 20 μl of 5 mg/ml MTT solution (in PBS) was added to each well and incubation continued for 1 hour at 37 °C. […] Absorbance was monitored at 540 nm using a Labsystems iEMS Reader MF (Labsystems Oy, Helsinki, Finland) and the software DeltaSoft II v.4.14 (Biometallics Inc., Princeton, NJ, USA). […]\nas §3\n(§6) The affinity between inhibitor 1 and the carbohydrate recognition domain (CRD) of galectin-8C and between inhibitor 3 and the CRD of galectin-2, -4N, -4C, 8C, and -9C was determined using the fluorescence anisotropy assay described in the main article. […]"}, "[6]": {"system": "AsPC-1 cells", "assay": "MTT assay, AsPC-1 pancreatic cancer cells", "type": "cell-based", "settings": "AsPC-1, 72 hours", "protocol": "as §5, §3, §6"}, "[7]": {"assay": "Caco-2 permeability assay", "settings": "human, Caco-2, pH 7.4"}}, "data": [{"smiles": "OC[C@H]1O[C@@H](S[C@@H]2O[C@H](CO)[C@H](O)[C@H](n3cc(-c4cccc(F)c4)nn3)[C@H]2O)[C@H](O)[C@@H](n2cc(-c3cccc(F)c3)nn2)[C@H]1O", "note": "[compound 1]", "values": [{"measurement": "cell proliferation (growth curves)", "setting": "[1]", "result": "no effect"}, {"measurement": "cell viability (MTT)", "setting": "[2]", "result": "no apparent change in cell viability"}, {"measurement": "cell proliferation (growth curves)", "setting": "[3]", "result": "no effect"}, {"measurement": "effect in animal models of idiopathic pulmonary fibrosis (IPF)", "setting": "[4]", "result": "therapeutic effects"}, {"measurement": "toxicity (MTT)", "setting": "[5]", "result": "low toxicity"}, {"measurement": "toxicity (MTT)", "setting": "[6]", "result": "low toxicity"}, {"measurement": "Papp A→B", "setting": "[7]", "result": 0.07, "unit": "×10⁻⁶ cm/s"}, {"measurement": "Papp B→A", "setting": "[7]", "result": 0.05, "unit": "×10⁻⁶ cm/s"}]}]}
